From patent publication US20040034084A1, “Methods for using JNK inhibitors for treating or preventing disease-related wasting” (Celgene Corporation, priority 2002, published 2004)

Tests used:
[1] = Brain-blood plasma distribution in vivo; design: species or system Sprague-Dawley rats; conditions: rat
Method: 5-Amino-anthra(9,1-cd)isothiazol-6-one was administered intravenously (10 mg/kg) into the veins of Sprague-Dawley rats. After 2 hr, blood samples were obtained from the animals and their vascular systems were perfused with approximately 100 mL of saline to rid their brains of blood. The brains were removed from the animals, weighed, and homogenized in a 50 mL conical tube containing 10 equivalents (w/v) of methanol/saline (1:1) using a Tissue Tearer (Fischer Scientific). The homogenized material was extracted by adding 600 μL of cold methanol to 250 μL of brain homogenate vortexed for 30 sec and subjected to centrifugation for 5 min. After centrifugation, 600 μL of the resulting supernatant was transferred to a clean tube and evaporated at room temperature under reduced pressure to provide a pellet. The resulting pellet was reconstituted in 250 μL of 30% aqueous methanol to provide a brain homogenate analysis sample. A plasma analysis sample was obtained using the brain homogenate analysis sample procedure described above by substituting plasma for brain homogenate. Standard plasma samples and standard brain homogenate samples containing known amounts of 5-amino-anthra(9,1-cd)isothiazol-6-one were also prepared by adding 5 μL of serial dilutions (50:1) of a solution of 5-amino-anthra(9,1-cd)isothiazol-6-one freshly prepared in cold ethanol to 250 μL of control rat plasma (Bioreclamation of Hicksville, N.Y.) or control brain homogenate. The standard plasma samples and standard brain homogenate samples were then subjected to the same extraction by protein precipitation, centrifugation, evaporation, and reconstitution procedure used for the brain homogenate to provide brain homogenate standard analysis samples and plasma standard analysis samples. The brain homogenate analysis samples, plasma analysis samples, and standard analysis samples were analyzed and compared using HPLC by injecting 100 μL of a sample onto a 5 μm C-18 Luna column (4.6 mm×150 mm, commercially available from Phenomenex of Torrance, Calif.) and eluting at 1 mL/min with a linear gradient of 30% aqueous acetonitrile containing 0.1% trifluoroacetic acid to 90% aqueous acetonitrile containing 0.1% trifluoroacetic acid over 8 minutes and holding at 90% aqueous acetonitrile containing 0.1% trifluoroacetic acid for 3 min. with absorbance detection at 450 nm. […] The concentration of 5-amino-anthra(9,1-cd) isothiazol-6-one in the brain and plasma was determined by comparing HPLC chromatograms obtained from the brain homogenate analysis samples and plasma analysis samples to standard curves constructed from analysis of the brain homogenate standard analysis samples and the plasma standard analysis samples, respectively. […]

[2] = target: T1, IKK2 (Homo sapiens, UniProt O14920); experiment: Selectivity for JNK: protein kinase panel, IKK2; type: biochemical
T1 sequence (O14920 1-756): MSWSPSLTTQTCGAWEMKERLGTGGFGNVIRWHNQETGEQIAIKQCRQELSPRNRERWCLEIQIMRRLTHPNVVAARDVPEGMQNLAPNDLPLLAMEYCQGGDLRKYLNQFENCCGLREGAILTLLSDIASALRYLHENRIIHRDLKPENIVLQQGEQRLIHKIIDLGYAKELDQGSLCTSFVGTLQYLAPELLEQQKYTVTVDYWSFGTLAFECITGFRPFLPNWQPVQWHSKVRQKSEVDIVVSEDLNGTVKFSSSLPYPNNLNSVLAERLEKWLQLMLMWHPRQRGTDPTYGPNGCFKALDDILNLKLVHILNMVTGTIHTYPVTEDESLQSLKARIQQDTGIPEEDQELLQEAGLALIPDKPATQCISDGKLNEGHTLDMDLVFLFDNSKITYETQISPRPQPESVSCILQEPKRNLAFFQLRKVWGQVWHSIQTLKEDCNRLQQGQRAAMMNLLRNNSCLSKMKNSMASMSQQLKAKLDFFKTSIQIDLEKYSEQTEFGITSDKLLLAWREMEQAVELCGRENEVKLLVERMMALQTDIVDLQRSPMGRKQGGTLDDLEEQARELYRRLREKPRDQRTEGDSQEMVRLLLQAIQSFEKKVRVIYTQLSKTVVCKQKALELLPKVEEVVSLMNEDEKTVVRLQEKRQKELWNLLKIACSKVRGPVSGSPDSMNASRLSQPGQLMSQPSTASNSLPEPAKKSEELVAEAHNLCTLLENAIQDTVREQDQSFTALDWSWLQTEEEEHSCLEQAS
Method: (§1) 5-Amino-anthra(9,1-cd)isothiazol-6-one was also assayed for its inhibitory activity against several protein kinases, listed below, using techniques known to those skilled in art (See, e.g., Protein Phosphorylation, Sefton & Hunter, Eds., Academic Press, pp. 97-367, 1998).

[3] = Solubility in aqueous media (remark); type: physicochemical
[4] = target: T2, His6-JNK3 (Homo sapiens, UniProt P53779); experiment: JNK assay (c-Jun phosphorylation), JNK3; type: biochemical; conditions: read-out: IC50 for JNK3 (c-Jun phosphorylation reduced to 50% of control)
T2 construct: His6 (N)
T2 sequence (P53779 whole entry): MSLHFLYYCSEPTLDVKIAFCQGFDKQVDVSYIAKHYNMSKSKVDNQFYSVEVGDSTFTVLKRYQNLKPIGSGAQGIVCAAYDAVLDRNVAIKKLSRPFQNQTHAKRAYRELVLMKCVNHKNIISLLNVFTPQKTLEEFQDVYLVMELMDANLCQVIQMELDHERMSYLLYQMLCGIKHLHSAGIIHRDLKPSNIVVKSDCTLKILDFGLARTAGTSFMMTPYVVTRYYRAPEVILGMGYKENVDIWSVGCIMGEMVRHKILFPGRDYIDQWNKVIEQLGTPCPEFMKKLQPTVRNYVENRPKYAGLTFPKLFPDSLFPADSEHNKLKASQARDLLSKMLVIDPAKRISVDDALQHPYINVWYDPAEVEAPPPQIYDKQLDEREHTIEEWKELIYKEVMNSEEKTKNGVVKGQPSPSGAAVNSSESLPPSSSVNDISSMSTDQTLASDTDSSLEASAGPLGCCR
Method: (§2) To 10 μL of 5-amino-anthra(9,1-cd)isothiazol-6-one in 20% DMSO/80% dilution buffer containing of 20 mM HEPES (pH 7.6), 0.1 mM EDTA, 2.5 mM magnesium chloride, 0.004% Triton ×100, 2 μg/mL leupeptin, 20 mM β-glycerolphosphate, 0.1 mM sodium vanadate, and 2 mM DTT in water was added 30 μL of 50-200 ng His6-JNK1, JNK2, or JNK3 in the same dilution buffer. The mixture was pre-incubated for 30 minutes at room temperature. Sixty microliter of 10 μg GST-c-Jun(1-79) in assay buffer consisting of 20 mM HEPES (pH 7.6), 50 mM sodium chloride, 0.1 mM EDTA, 24 mM magnesium chloride, 1 mM DTT, 25 mM PNPP, 0.05% Triton ×100, 11 μM ATP, and 0.5 μCi γ-32P ATP in water was added and the reaction was allowed to proceed for 1 hour at room temperature. The c-Jun phosphorylation was terminated by addition of 150 μL of 12.5% trichloroacetic acid. After 30 minutes, the precipitate was harvested onto a filter plate, diluted with 50 μL of the scintillation fluid and quantified by a counter. The IC50 values were calculated as the concentration of 5-amino-anthra(9,1-cd)isothiazol-6-one at which the c-Jun phosphorylation was reduced to 50% of the control value. Compounds that inhibit JNK preferably have an IC50 value ranging 0.01-10 μM in this assay. 5-Amino-anthra(9,1-cd)isothiazol-6-one has an IC50 according to this assay of 1 μM for JNK2 and 400 nM for JNK3.

[5] = target: T3, MEK6 (Homo sapiens, UniProt P52564); experiment: Selectivity for JNK: protein kinase panel, MEK6; type: biochemical
T3 sequence (P52564 1-334): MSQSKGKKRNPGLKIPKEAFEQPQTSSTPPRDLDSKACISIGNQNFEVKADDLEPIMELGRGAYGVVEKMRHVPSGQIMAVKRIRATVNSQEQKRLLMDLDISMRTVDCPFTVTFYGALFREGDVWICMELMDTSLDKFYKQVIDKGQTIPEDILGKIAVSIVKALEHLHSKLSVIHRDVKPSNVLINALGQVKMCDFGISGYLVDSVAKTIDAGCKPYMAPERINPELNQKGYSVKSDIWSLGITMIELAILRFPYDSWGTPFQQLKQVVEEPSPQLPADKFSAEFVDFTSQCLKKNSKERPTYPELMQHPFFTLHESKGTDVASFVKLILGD
Method: as §1

[6] = target: p38-2 (Homo sapiens, UniProt Q15759); experiment: Selectivity for JNK: protein kinase panel, p38-2; type: biochemical
p38-2, sequence (Q15759 whole entry, species assumed): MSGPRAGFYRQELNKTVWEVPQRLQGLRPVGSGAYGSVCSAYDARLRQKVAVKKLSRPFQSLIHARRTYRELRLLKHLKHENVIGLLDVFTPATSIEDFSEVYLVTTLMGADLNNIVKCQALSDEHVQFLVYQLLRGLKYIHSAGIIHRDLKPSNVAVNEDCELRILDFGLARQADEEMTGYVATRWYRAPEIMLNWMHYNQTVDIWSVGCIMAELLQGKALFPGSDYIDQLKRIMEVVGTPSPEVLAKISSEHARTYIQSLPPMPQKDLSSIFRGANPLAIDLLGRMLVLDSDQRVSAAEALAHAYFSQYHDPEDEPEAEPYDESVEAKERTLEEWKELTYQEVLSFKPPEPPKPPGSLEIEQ
Method: as §1

[7] = target: T4, LKK1 (Homo sapiens, UniProt O15111); experiment: Selectivity for JNK: protein kinase panel, LKK1; type: biochemical
T4 sequence (O15111 1-745): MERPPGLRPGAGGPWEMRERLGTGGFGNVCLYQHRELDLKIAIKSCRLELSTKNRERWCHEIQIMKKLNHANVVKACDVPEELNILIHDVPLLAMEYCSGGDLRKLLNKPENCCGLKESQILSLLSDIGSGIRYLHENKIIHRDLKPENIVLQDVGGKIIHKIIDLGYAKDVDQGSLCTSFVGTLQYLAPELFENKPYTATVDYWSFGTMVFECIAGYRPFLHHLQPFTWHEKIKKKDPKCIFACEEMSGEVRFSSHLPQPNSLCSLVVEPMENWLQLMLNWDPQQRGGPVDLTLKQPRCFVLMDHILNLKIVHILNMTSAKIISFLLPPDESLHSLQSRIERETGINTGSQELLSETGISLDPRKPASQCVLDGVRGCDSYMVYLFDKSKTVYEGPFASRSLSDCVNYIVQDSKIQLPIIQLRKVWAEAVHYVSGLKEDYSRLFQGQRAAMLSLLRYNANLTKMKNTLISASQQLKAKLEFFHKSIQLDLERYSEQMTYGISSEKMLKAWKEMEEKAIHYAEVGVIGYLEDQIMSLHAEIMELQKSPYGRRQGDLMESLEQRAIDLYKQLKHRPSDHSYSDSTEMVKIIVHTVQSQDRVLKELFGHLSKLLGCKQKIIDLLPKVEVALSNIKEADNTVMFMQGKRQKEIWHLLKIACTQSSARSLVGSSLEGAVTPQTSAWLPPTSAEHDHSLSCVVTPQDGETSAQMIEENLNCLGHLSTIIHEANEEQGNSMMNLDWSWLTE
Method: as §1

[8] = tested on: IL-2 production in Jurkat T cells (clone E6-1); experiment: Jurkat T-cell IL-2 production assay; type: cell-based; conditions: Homo sapiens, 10 h, read-out: IC50, IL-2 production reduced to 50% of control
Method: Jurkat T cells (clone E6-1) were purchased from the American Type Culture Collection of Manassas, Va. and maintained in growth media consisting of RPMI 1640 medium containing 2 mM L-glutamine (commercially available from Mediatech Inc. of Hemdon, Va.), with 10% fetal bovine serum (commercially available from Hyclone Laboratories Inc. of Omaha, Nebr.) and penicillin/streptomycin. All cells were cultured at 37° C. in 95% air and 5% CO2. Cells were plated at a density of 0.2×10^6 cells per well in 200 μL of media. Compound stock (20 mM) was diluted in growth media and added to each well as a 10× concentrated solution in a volume of 25 μL, mixed, and allowed to pre-incubate with cells for 30 minutes. The compound vehicle (dimethylsulfoxide) was maintained at a final concentration of 0.5% in all samples. After 30 minutes the cells were activated with PMA (phorbol myristate acetate, final concentration 50 ng/mL) and PHA (phytohemagglutinin, final concentration 2 μg/mL). PMA and PHA were added as a 10× concentrated solution made up in growth media and added in a volume of 25 μL per well. Cell plates were cultured for 10 hours. Cells were pelleted by centrifugation and the media removed and stored at −20° C. Media aliquots are analyzed by sandwich ELISA for the presence of IL-2 as per the manufacturers instructions (Endogen Inc. of Woburn, Mass.). […]

[9] = tested on: rat ventral mesencephalan dopaminergic neurons; experiment: [3H]Dopamine cell culture assay (6-OHDA neurotoxicity); type: cell-based; conditions: 6-OHDA 30 μM, uptake 22 hours after exposure
Method: Cultures of dopaminergic neurons were prepared according to a modification of the procedure described by Raymon and Leslie (J. Neurochem. 62:1015-1024, 1994). Time-mated pregnant rats were sacrificed on embyronic day 14-15 (crown rump length 11-12 mm) and the embryos removed by cesarean section. The ventral mesencephalon, containing the dopaminergic neurons, was dissected from each embryo. Tissue pieces from approximately 48 embryos were pooled and dissociated both enzymatically and mechanically. An aliquot from the resulting cell suspension was counted and the cells were plated in high glucose DMEM/F12 culture medium with 10% fetal bovine serum at a density of 1×10^5 cells/well of a Biocoat poly-D-lysine-coated 96-well plate. The day following plating was considered 1 day in vitro (DIV). Cells were maintained in a stable environment at 37° C., 95% humidity, and 5% CO2. A partial medium change was performed at 3 DIV. […]
[^3H]Dopamine uptake is used as a measure of the health and integrity of dopaminergic neurons in culture (Prochiantz et al., PNAS 76: 5387-5391, 1979). […] Briefly, cells treated with 6-OHDA in the presence and absence of 5-amino-anthra(9,1-cd)isothiazol-6-one were assessed in the uptake assay 22 hrs after exposure to 6-OHDA. […] Radioactivity was removed and the cultures were washed 3× with ice cold PBS. […]

[10] = target: T5, His6-JNK2 (Homo sapiens, UniProt P45984); experiment: JNK assay (c-Jun phosphorylation), JNK2; type: biochemical; conditions: read-out: IC50 for JNK2 (c-Jun phosphorylation reduced to 50% of control)
T5 construct: His6 (N)
T5 sequence (P45984 whole entry): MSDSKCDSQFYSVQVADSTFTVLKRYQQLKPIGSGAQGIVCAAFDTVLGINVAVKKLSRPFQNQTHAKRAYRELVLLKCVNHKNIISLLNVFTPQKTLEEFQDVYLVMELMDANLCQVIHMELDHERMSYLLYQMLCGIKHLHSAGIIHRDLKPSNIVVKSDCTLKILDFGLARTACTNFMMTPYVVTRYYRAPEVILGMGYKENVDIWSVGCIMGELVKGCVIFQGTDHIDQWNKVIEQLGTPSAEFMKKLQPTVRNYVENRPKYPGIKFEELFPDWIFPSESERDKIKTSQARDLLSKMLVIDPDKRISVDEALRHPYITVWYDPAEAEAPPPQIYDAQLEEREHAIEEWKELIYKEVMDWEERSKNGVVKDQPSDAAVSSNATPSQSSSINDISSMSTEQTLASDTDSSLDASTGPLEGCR
Method: as §2

Kp at 2 h ([1]; Sprague-Dawley, iv, 10 mg/kg intravenously, 2 hr post-dose, assuming 1 g brain tissue equivalent to 1 mL plasma, read-out: Brain-plasma concentration ratio): ~9 | concentration at 2 h ([1]; Sprague-Dawley, plasma, iv, 10 mg/kg intravenously, 2 hr post-dose): ~7 µM | Brain-drug concentration ([1]; 10 mg/kg intravenously, 2 hr post-dose): approximately 65 nmole/g | IC50 [2]: > 30 µM | Solubility in aqueous media [3]: limited solubility | IC50 [4]: 0.4 µM | IC50 [5]: > 30 µM | IC50 [6]: > 30 µM | IC50 [7]: > 30 µM | IC50 [8]: 30 µM | IC50 [10]: 1 µM
Compound: Nc1ccc2snc3c2c1C(=O)c1ccccc1-3 [5-amino-anthra(9,1-cd)isothiazol-6-one]
Blood-brain barrier crossing ([1]; following intravenous administration): crosses the blood-brain barrier to a significant extent | Protection of dopaminergic neurons from 6-OHDA ([3H]dopamine uptake) [9]: protects rat ventral mesencephalan neurons from the toxic effects of 6-OHDA
